The results in this text go back to patent publication US9732119B2, “Immunomodulators” (BRISTOL-MYERS SQUIBB COMPANY, priority 2014, dated 2017).

By IC50 is commonly meant the concentration at which inhibition is half-maximal. A lower IC50 goes with higher potency.

Positions of bridges follow the written chain, without caps; N, C: chain ends. Non-standard residues stand in square brackets, D forms with d. Residues, ends and D or L forms follow the SMILES beside them. Trp(1-CH2COOH) = N[C@@H](Cc1cn(CC(=O)O)c2ccccc12)C(=O)O; Phe(4-Cl) = N[C@@H](Cc1ccc(Cl)cc1)C(=O)O; Phe(4-Me) = Cc1ccc(C[C@H](N)C(=O)O)cc1; Hyp = O=C(O)[C@@H]1C[C@@H](O)CN1; Aad = N[C@@H](CCCC(=O)O)C(=O)O; NMeNle = CCCC[C@H](NC)C(=O)O; dOrn = NCCC[C@@H](N)C(=O)O; Pip = O=C(O)[C@@H]1CCCCN1; NMeA = CN[C@@H](C)C(=O)O; Dab = NCC[C@H](N)C(=O)O; Dap = NC[C@H](N)C(=O)O; Ava = NCCCCC(=O)O; GABA = NCCCC(=O)O

In this assay the target is T1, PD-1-Ig binding to PD-L1-TVMV-His (PD-L1-His) (Homo sapiens, UniProt Q9NZQ7).
T1 construct: hPDL1(19-239)-TVMV-His; made in house; host or cells: HEK293T cells
T1 sequence (Q9NZQ7 with tags, fused parts or gaps): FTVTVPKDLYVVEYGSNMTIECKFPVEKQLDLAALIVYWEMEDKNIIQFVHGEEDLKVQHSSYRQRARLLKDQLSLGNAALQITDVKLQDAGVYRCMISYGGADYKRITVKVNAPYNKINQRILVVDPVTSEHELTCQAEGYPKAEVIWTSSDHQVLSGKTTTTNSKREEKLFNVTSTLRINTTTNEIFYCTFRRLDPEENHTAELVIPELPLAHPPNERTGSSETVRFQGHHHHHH
As to the kind of experiment: PD-1/PD-L1 Homogenous Time-Resolved Fluorescence (HTRF) binding assay. As to conditions: PD-1-Ig (20 nM) / PD-L1-His (10 nM); range classes. The method in brief: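 HTRF competition: compound pre-incubated 15 min with PD-L1-His (10 nM final), then PD-1-Ig (20 nM final) added for 15 min in dPBS, 0.1% BSA, 0.05% Tween-20. Detection with Eu-cryptate anti-Ig (1 nM) and APC anti-His (20 nM) antibodies.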
(In TR-FRET formats the signal depends on donor and acceptor labels being close together.)

Turning to `CCCC[C@H]1C(=O)N(C)[C@@H](CCCC)C(=O)N[C@@H](CC(C)C)C(=O)NCC(=O)NCC(=O)N[C@@H](Cc2ccc(O)cc2)C(=O)N(C)[C@@H](C)C(=O)N[C@@H](CC(N)=O)C(=O)N2CCC[C@H]2C(=O)N[C@@H](CN)C(=O)N[C@@H](CC(C)C)C(=O)N2C[C@H](O)C[C@H]2C(=O)N[C@@H](Cc2c[nH]c3ccccc23)C(=O)N[C@@H](CCN)C(=O)N[C@@H](Cc2c[nH]c3ccccc23)C(=O)N1C` [Example 5001] (cyclo([Dab]W[NMeNle][NMeNle]LGGY[NMeA]NP[Dap]L[Hyp]W)), the IC50 was in the range of 1 to 9.9 nM.
Then `CCCC[C@H]1C(=O)N(C)[C@@H](CCCC)C(=O)N[C@@H](CCC(=O)O)C(=O)N[C@H](C(=O)NCC(N)=O)CNCC(=O)N[C@@H](Cc2ccc(O)cc2)C(=O)N(C)[C@@H](C)C(=O)N[C@@H](CC(N)=O)C(=O)N2CCC[C@H]2C(=O)N[C@@H](CCC(N)=O)C(=O)N[C@@H](CC(=O)O)C(=O)N2C[C@H](O)C[C@H]2C(=O)N[C@@H](Cc2c[nH]c3ccccc23)C(=O)N[C@@H](CC(N)=O)C(=O)N[C@@H](Cc2cn(CC(=O)O)c3ccccc23)C(=O)N1C` [Example 9019], with 1 to 9.9 nM; and `CCCC[C@H]1C(=O)N(C)[C@@H](CCCC)C(=O)N[C@@H](CC(C)C)C(=O)N[C@H](C(N)=O)CNCC(=O)N[C@@H](Cc2ccc(O)cc2)C(=O)N2CCCC[C@H]2C(=O)N[C@@H](CC(N)=O)C(=O)N2CCC[C@H]2C(=O)N[C@@H](CCC(N)=O)C(=O)N[C@@H](CC(C)C)C(=O)N2C[C@H](O)C[C@H]2C(=O)N[C@@H](Cc2c[nH]c3ccccc23)C(=O)N[C@@H](CC(N)=O)C(=O)N[C@@H](Cc2cn(CC(=O)O)c3ccccc23)C(=O)N1C` [Example 9026], with 1 to 9.9 nM.
As for `CCCC[C@H]1C(=O)N(C)[C@@H](CCCC)C(=O)N[C@@H](CC(C)C)C(=O)N[C@H](C(N)=O)CNCC(=O)N[C@@H](Cc2ccc(O)cc2)C(=O)N2CCCC[C@H]2C(=O)N[C@@H](CC(N)=O)C(=O)N2CCC[C@H]2C(=O)N[C@@H](CN)C(=O)N[C@@H](CC(C)C)C(=O)N2C[C@H](O)C[C@H]2C(=O)N[C@@H](Cc2c[nH]c3ccccc23)C(=O)N[C@@H](CCN)C(=O)N[C@@H](Cc2cn(CC(=O)O)c3ccccc23)C(=O)N1C` [Example 1038], the IC50 lay in the range of 1 to 9.9 nM.
To `CCCC[C@H]1C(=O)N(C)[C@@H](CCCC)C(=O)N[C@@H](CC(C)C)C(=O)N[C@H](C(=O)NCC(N)=O)CNCC(=O)N[C@@H](Cc2ccc(OC)cc2)C(=O)N(C)[C@@H](C)C(=O)N[C@@H](CC(N)=O)C(=O)N2CCC[C@H]2C(=O)N[C@@H](CN)C(=O)N[C@@H](CCC(=O)O)C(=O)N2C[C@H](O)C[C@H]2C(=O)N[C@@H](Cc2c[nH]c3ccccc23)C(=O)N[C@@H](CCN)C(=O)N[C@@H](Cc2cn(CC(=O)O)c3ccccc23)C(=O)N1C` [Example 1041] belongs 1 to 9.9 nM; to `CCCC[C@H]1C(=O)N(C)[C@@H](CCCC)C(=O)N[C@@H](CC(C)C)C(=O)N[C@H](C(=O)NCC(N)=O)CNCC(=O)N[C@@H](Cc2ccc(O)cc2)C(=O)N(C)[C@@H](C)C(=O)N[C@@H](CC(N)=O)C(=O)N2CCC[C@H]2C(=O)N[C@@H](Cc2cnc[nH]2)C(=O)N[C@@H](CCC(N)=O)C(=O)N2C[C@H](O)C[C@H]2C(=O)N[C@@H](Cc2c[nH]c3ccccc23)C(=O)NCC(=O)N[C@@H](Cc2cn(CC(=O)O)c3ccccc23)C(=O)N1C` [Example 10020], 10 to 99 nM.
Then `CCCC[C@H]1C(=O)N(C)[C@@H](CCCC)C(=O)N[C@@H](CCC(=O)O)C(=O)N[C@H](C(N)=O)CCCC(=O)N[C@@H](Cc2ccc(C)cc2)C(=O)N2CCCC[C@H]2C(=O)N[C@@H](CC(N)=O)C(=O)N2CCC[C@H]2C(=O)N[C@@H](CN)C(=O)N[C@@H](CC(C)C)C(=O)N2C[C@H](O)C[C@H]2C(=O)N[C@@H](Cc2c[nH]c3ccccc23)C(=O)N[C@@H](CCN)C(=O)N[C@@H](Cc2cn(CC(=O)O)c3ccccc23)C(=O)N1C` [Example 10562] ([Phe(4-Me)][Pip]NP[Dap]L[Hyp]W[Dab][Trp(1-CH2COOH)][NMeNle][NMeNle]E[Aad]-NH2; lactam N-14), with 10 to 99 nM.
As for `CCCC[C@H]1C(=O)N(C)[C@@H](CCCC)C(=O)N[C@@H](CC(C)C)C(=O)N[C@H](C(N)=O)COCC(=O)N[C@@H](Cc2ccc(F)cc2)C(=O)N2CCCC[C@H]2C(=O)N[C@@H](CC(N)=O)C(=O)N2CCC[C@H]2C(=O)N[C@@H](CN)C(=O)N[C@@H](CCC(=O)O)C(=O)N2C[C@H](O)C[C@H]2C(=O)N[C@@H](Cc2c[nH]c3ccccc23)C(=O)N[C@@H](CCN)C(=O)N[C@@H](Cc2cn(CC(=O)O)c3ccccc23)C(=O)N1C` [Example 10531], the IC50 is 1 to 9.9 nM.
`CCCC[C@H]1C(=O)N(C)[C@@H](CCCC)C(=O)N[C@@H](CC(C)C)C(=O)NCCC[C@@H](N)C(=O)N[C@@H](Cc2ccc(Cl)cc2)C(=O)N2CCCC[C@H]2C(=O)N[C@@H](CC(N)=O)C(=O)N2CCC[C@H]2C(=O)N[C@@H](CN)C(=O)N[C@@H](CCC(=O)O)C(=O)N2C[C@H](O)C[C@H]2C(=O)N[C@@H](Cc2c[nH]c3ccccc23)C(=O)N[C@@H](CCN)C(=O)N[C@@H](Cc2cn(CC(=O)O)c3ccccc23)C(=O)N1C` [Example 10571] (H-[dOrn][Phe(4-Cl)][Pip]NP[Dap]E[Hyp]W[Dab][Trp(1-CH2COOH)][NMeNle][NMeNle]L; lactam 1-C) registered a half-inhibitory concentration (IC50) of 1 to 9.9 nM.
With `CCCC[C@H]1C(=O)N(C)[C@@H](CCCC)C(=O)N[C@@H](CCC(=O)O)C(=O)N[C@H](C(N)=O)CNCC(=O)N[C@@H](Cc2ccc(F)cc2)C(=O)N2CCCC[C@H]2C(=O)N[C@@H](CC(N)=O)C(=O)N2CCC[C@H]2C(=O)N[C@@H](Cc2c[nH]cn2)C(=O)N[C@@H](CCC(N)=O)C(=O)N2C[C@H](O)C[C@H]2C(=O)N[C@@H](Cc2c[nH]c3ccccc23)C(=O)N[C@@H](C)C(=O)N[C@@H](Cc2cn(CC(=O)O)c3ccccc23)C(=O)N1C` [Example 9059], the IC50 is 1 to 9.9 nM.
Then `CCCC[C@H]1C(=O)N(C)[C@@H](CCCC)C(=O)N[C@@H](CC(C)C)C(=O)N[C@H](C(N)=O)CNCC(=O)N[C@@H](Cc2ccc(F)cc2)C(=O)N2CCCC[C@H]2C(=O)N[C@@H](CC(N)=O)C(=O)N2CCC[C@H]2C(=O)N[C@@H](CCC(N)=O)C(=O)N[C@@H](CC(=O)O)C(=O)N2C[C@H](O)C[C@H]2C(=O)N[C@@H](Cc2c[nH]c3ccccc23)C(=O)N[C@@H](CC(N)=O)C(=O)N[C@@H](Cc2cn(CC(=O)O)c3ccccc23)C(=O)N1C` [Example 9031], with 1 to 9.9 nM; and `CCCC[C@H]1C(=O)N(C)[C@@H](CCCC)C(=O)N[C@@H](CCC(=O)O)C(=O)N[C@H](C(=O)NCC(N)=O)CNCC(=O)N[C@@H](Cc2ccc(F)cc2)C(=O)N(C)[C@@H](C)C(=O)N[C@@H](CC(N)=O)C(=O)N2CCC[C@H]2C(=O)N[C@@H](CCC(N)=O)C(=O)N[C@@H](CCC(=O)O)C(=O)N2C[C@H](O)C[C@H]2C(=O)N[C@@H](Cc2c[nH]c3ccccc23)C(=O)N[C@@H](CC(N)=O)C(=O)N[C@@H](Cc2cn(CC(=O)O)c3ccccc23)C(=O)N1C` [Example 9024], with 10 to 99 nM; and `CCCC[C@H]1C(=O)N(C)[C@@H](CCCC)C(=O)N[C@@H](CC(C)C)C(=O)NCCCCC(=O)N[C@@H](Cc2ccc(Cl)cc2)C(=O)N2CCCC[C@H]2C(=O)N[C@@H](CC(N)=O)C(=O)N2CCC[C@H]2C(=O)N[C@@H](CN)C(=O)N[C@@H](CC(C)C)C(=O)N2C[C@H](O)C[C@H]2C(=O)N[C@@H](Cc2c[nH]c3ccccc23)C(=O)N[C@@H](CCN)C(=O)N[C@@H](Cc2cn(CC(=O)O)c3ccccc23)C(=O)N1C` [Example 10537] (cyclo([Ava][Phe(4-Cl)][Pip]NP[Dap]L[Hyp]W[Dab][Trp(1-CH2COOH)][NMeNle][NMeNle]L)), with 10 to 99 nM.
For `CCCC[C@H]1C(=O)N(C)[C@@H](CCCC)C(=O)N[C@@H](CC(C)C)C(=O)N[C@H](C(N)=O)COCC(=O)N[C@@H](Cc2ccc(C)cc2)C(=O)N2CCCC[C@H]2C(=O)N[C@@H](CC(N)=O)C(=O)N2CCC[C@H]2C(=O)N[C@@H](CN)C(=O)N[C@@H](CCC(=O)O)C(=O)N2C[C@H](O)C[C@H]2C(=O)N[C@@H](Cc2c[nH]c3ccccc23)C(=O)N[C@@H](CCN)C(=O)N[C@@H](Cc2cn(CC(=O)O)c3ccccc23)C(=O)N1C` [Example 10538], the IC50 lay in the range of 1 to 9.9 nM.
Then `CCCC[C@H]1C(=O)N(C)[C@@H](CCCC)C(=O)N[C@@H](CC(C)C)C(=O)NCCCC(=O)NCC(=O)N[C@@H](Cc2ccc(O)cc2)C(=O)N(C)[C@@H](C)C(=O)N[C@@H](CC(N)=O)C(=O)N2CCC[C@H]2C(=O)N[C@@H](Cc2c[nH]cn2)C(=O)N[C@@H](CC(C)C)C(=O)N2C[C@H](O)C[C@H]2C(=O)N[C@@H](Cc2c[nH]c3ccccc23)C(=O)NCC(=O)N[C@@H](Cc2c[nH]c3ccccc23)C(=O)N1C` [Example 5005] (cyclo(GW[NMeNle][NMeNle]L[GABA]GY[NMeA]NPHL[Hyp]W)), with 100 to 10000 nM; and `CCCC[C@H]1C(=O)N(C)[C@@H](CCCC)C(=O)N[C@@H](CC(C)C)C(=O)N[C@H](C(=O)NCC(N)=O)CNCC(=O)N[C@@H](Cc2ccc(O)cc2)C(=O)N(C)[C@@H](C)C(=O)N[C@@H](CC(N)=O)C(=O)N2CCC[C@H]2C(=O)N[C@@H](Cc2cnc[nH]2)C(=O)N[C@@H](CC(C)C)C(=O)N2CCC[C@H]2C(=O)N[C@@H](Cc2c[nH]c3ccccc23)C(=O)N[C@@H](CO)C(=O)N[C@@H](Cc2cn(CC(=O)O)c3ccccc23)C(=O)N1C` [Example 10006], with 10 to 99 nM.
In turn, `CCCC[C@H]1C(=O)N(C)[C@@H](CCCC)C(=O)N[C@@H](CC(C)C)C(=O)N[C@H](C(N)=O)CCCC(=O)N[C@@H](Cc2ccc(OC)cc2)C(=O)N2CCCC[C@H]2C(=O)N[C@@H](CC(=O)O)C(=O)N2CCC[C@H]2C(=O)N[C@@H](CN)C(=O)N[C@@H](CC(C)C)C(=O)N2C[C@H](O)C[C@H]2C(=O)N[C@@H](Cc2c[nH]c3ccccc23)C(=O)N[C@@H](CCN)C(=O)N[C@@H](Cc2cn(CC(=O)O)c3ccccc23)C(=O)N1C` [Example 10554] (Y(Me)[Pip]DP[Dap]L[Hyp]W[Dab][Trp(1-CH2COOH)][NMeNle][NMeNle]L[Aad]-NH2; lactam N-14) registered an IC50 of 1 to 9.9 nM.
